In US5693830A, “Process for preparing the spiropyrone compounds” (Tokuyama Corporation, priority 1994, dated 1997):

Assay: Photochromic properties of spiropyran compounds in methyl polymethacrylate film
Format: physicochemical
Conditions: for ε (60 sec.) -ε (0 sec.): absorbancy at max. absorption wavelength, irradiated 60 seconds minus not irradiated; for ε (60 sec.) -ε (0 sec.) / Developed color tone: 25° C.; for λ MAX (max. absorption wavelength): color-developing film, spectrophotometer 220A; for Developed color tone: film 1.0×10^-4 mol/g, 0.1 mm thick, mercury lamp, 10 cm, 60 seconds; for t1/2 (half-value period): time until absorbancy decreases to one-half {ε(60 sec)-ε(0 sec)} after irradiation for 60 seconds
Protocol: The concentration of the above compound contained in the film was adjusted to be 1.0×10^-4 mol/g and the thickness was adjusted to be 0.1 mm. The photochromic film was exposed to the light of a mercury lamp SHL-100 produced by Toshiba Co. at a temperature of 25° C.+1° C. from a distance of 10 cm for 60 seconds so as to develop a color, in order to measure its photochromic properties. The photochromic properties were expressed as described below.
Max. absorption wavelength (λmax)
λmax of the color-developing film was found by using a spectrophotometer 220A manufactured by Hitachi, Ltd.
Absorbancy of the film at a maximum absorption wavelength after irradiated with light for 60 seconds under the above-mentioned conditions.
Absorbancy of the film that is not irradiated with light at a maximum absorption wave of when it is irradiated with light.
Time needed until the absorbancy of the film decreases to one-half {ε(60 sec)-ε(0 sec)} after irradiated with light for 60 seconds.

| Molecule | ε (60 sec.) -ε (0 sec.) | λ MAX (max. absorption wavelength) [nm] | Developed color tone | t1/2 (half-value period) [s] |
| --- | --- | --- | --- | --- |
| 3',4'-Dimethylspiro(2-bicyclo[3,3,1]nonene-9,2'-(2H)fluoro(2,3-b)pyran) [compound 38] | 0.6 | 430 | yellow | 10 |
| ClC12CC=CC(CCC1)C21C=C(Cc2ccccc2)c2c(cnc3ccccc23)O1 (stereo not shown) [compound 28, 5-Chloro-4'-benzylspiro(2-bicyclo(3,3,1)nonene-9,2'-(2H)quino(3,4-b)pyran)] | 0.9 | 402 | yellow | 16 |
| CCCCC1=CC2(Oc3c(C#N)cccc31)C1C=CCC2CCC1 (stereo not shown) [compound 29, 8'-Cyano-4'-n-butylspiro(2-bicyclo(3,3,1)nonene-9,2'-(2H)chromene)] | 0.5 | 494 | orange | 11 |
| CC1(C)CCC2(C)CC=CC1C21C=C(c2ccccc2)c2cccnc2O1 (stereo not shown) [compound 30] | 0.6 | 480 | orange | 26 |
| CCCC12CC=CC(CCC1)C21C=C(CC)c2ccc3c(-c4ccccc4)cccc3c2O1 (stereo not shown) [compound 31, 7'-Phenyl-4'-ethyl-5-n-propylspiro(2-bicyclo[3,3,1]nonene-9,2'-(2H)benzo(h)chromene)] | 0.7 | 460 | yellow | 90 |
| CCCCC1=CC2(Oc3c1ccc1ccccc31)C1C=CCC2CCC1 (stereo not shown) [compound 32, 4'-n-Butylspiro(2-bicyclo[3,3,1]nonene-9,2'-(2H)benzo(h)chromene)] | 0.8 | 445 | yellow | 110 |
| CCCC1=Cc2c(ccc3ccccc23)OC12C1C=CCC2CCC1 (stereo not shown) [compound 33, 3'-n-Propylspiro(2-bicyclo[3,3,1]nonene-9,2'-(2H)benzo(f)chromene)] | 0.6 | 410 | yellow | 18 |
| C1=CC2CCCC(C1)C21Oc2ccc3ccccc3c2C=C1CCc1ccccc1 (stereo not shown) [compound 34, 3'-Benzylmethylspiro(2-bicyclo[3,3,1]nonene-9,2'-(2H)benzo(f)chromene)] | 0.7 | 406 | yellow | 26 |
| CC(C)C1=Cc2c(ccc3ccccc23)OC12C1C=CCC2CCC1 (stereo not shown) [compound 35, 3'-i-Propylspiro(2-bicyclo[3,3,1]nonene-9,2'-(2H)benzo(f)chromene)] | 0.6 | 410 | yellow | 18 |
| COc1ccc(C2=Cc3c(ccc4ccccc34)OC23C2C=CCC3CCC2)cc1 (stereo not shown) [compound 36, 3'-p-methoxyphenylspiro(2-bicyclo[3,3,1]nonene-9,2'-(2H)benzo(f)chromene)] | 0.9 | 420 | yellow | 25 |
| CCC1=Cc2c(cnc3ccccc23)OC12C1C=CCC2CCC1 (stereo not shown) [compound 37, 3'-Ethylspiro(2-bicyclo[3,3,1]nonene-9,2'-(2H)quino(3,4-b)pyran)] | 0.5 | 415 | yellow | 22 |
| CCC1=C(Cc2ccccc2)C2(Oc3scc(Br)c31)C1C=CCC2CCC1 (stereo not shown) [compound 39, 4'-Ethyl-3'-benzyl-5'-bromospiro(2-bicyclo[3,3,1]nonene-9,2'-(2H)thieno(2,3-b)pyran)] | 0.6 | 465 | orange | 12 |
| CCCC1=C(Cc2ccccc2)c2c(ccc3ccccc23)OC12C1C=CCC2CCC1 (stereo not shown) [compound 40, 3'-n-Propyl-4'-benzylspiro(2-bicyclo[3,3,1]nonene-9,2'-(2H)benzo(f)chromene)] | 0.8 | 420 | yellow | 14 |
| C1=CC2CCCC(C1)C21Oc2ccc3ccccc3c2C(c2ccccc2)=C1CCc1ccccc1 (stereo not shown) [compound 41, 3'-Benzylmethyl-4'-phenylspiro(2-bicyclo[3,3,1]nonene-9,2'-(2H)benzo(f)chromene)] | 0.7 | 440 | yellow | 17 |
| CCC1=C(CC)C2(Oc3c1ccc1ccccc31)C1C=CCC2CCC1 (stereo not shown) [compound 42, 3',4'-Diethylspiro(2-bicyclo[3,3,1]nonene-9,2'-(2H)benzo(h)chromene)] | 1.0 | 450 | yellow | 28 |
| Spiro(2-bicyclo(3,3,1)nonene-9,2'-(2H)methylpyrrolo(2,3-b)pyran) [compound 27] | 1.0 | 470 | orange | 48 |
